Test results from patent US20230324368A1, “Systems, Devices And Methods For Cell Analysis Using ChemFET Sensor Arrays” (Life Technologies Corporation, priority 2020, published 2023).

Key:
HEPG2 cells [1] = experiment: Label-free metabolic profiling (glucose restriction / glucose reintroduction) on ChemFET sensor array, HEPG2 cells; format: cell-based, human
Description: FIG. 18A through FIG. 18B are graphs of data collected during metabolic profiling studies using HEPG2 cells (ATCC-HB-8065), while FIG. 19A and FIG. 19B are graphs of data collected during metabolic profiling studies using A673 cells (ECACC 85111504). FIG. 18A through FIG. 18B are temporal response graphs of counts equivalent to protons (CEP) in microvolts (μV) versus time. As will be described in more detail herein, the pharmacological dissection of metabolic profiling can be performed to understand the contribution of oxidative metabolism and glycolytic metabolism to metabolic profiling. Accordingly, chemical agents, such as oligomycin, antimycin A, rotenone and metformin can used to understand a contribution of oxidative metabolism to cellular response in a metabolic profiling study, while chemical agents, such as 2-deoxy-D-glucose, koningic acid, fasentin, and AM2394 can used to understand a contribution of glycolytic metabolism to cellular response in a metabolic profiling study.
The chip devices used in the studies were ISFET chip devices selective for sensing hydrogen ions, and were chip devices such as chip device 1 of 1 of Table 1. Given that the analyses performed were for metabolic profiling, chip devices with microwells were selected as depicted for chip device 500B of FIG. 5C. […]
(§1) Prior to seeding the devices with cells, each chip device in open format, such as open format chip device 500 of FIG. 2, and were soaked for 30 minutes with 70% ethanol in water, then rinsed with PBS and then rinsed twice with 1.5 mL of a cell culture medium, for example, Dulbecco's Modified […] Medium (DMEM; Gibco™ catalog #11995-065), Minimal Essential Medium (MEM; Gibco™ catalog #11095-080) or McCoy's 5A modified medium (Gibco™ catalog #12330-031). […] After rinsing with the cell culture medium, the devices were ready for addition to each device of a suspension of cells at a density between 5,000 to 30,000 cells in 1 to 1.5 mL of a cell culture medium, pH 7.4. […]

A673 cells [2] = experiment: Label-free metabolic profiling (glucose restriction / glucose reintroduction) on ChemFET sensor array, A673 cells; format: cell-based; conditions: 5 μM koningic acid pretreatment during glucose restriction; 5 mM glucose reintroduction; FIG. 19A/19B
Description: FIG. 18A through FIG. 18B are graphs of data collected during metabolic profiling studies using HEPG2 cells (ATCC-HB-8065), while FIG. 19A and FIG. 19B are graphs of data collected during metabolic profiling studies using A673 cells (ECACC 85111504). FIG. 18A through FIG. 18B are temporal response graphs of counts equivalent to protons (CEP) in microvolts (μV) versus time. As will be described in more detail herein, the pharmacological dissection of metabolic profiling can be performed to understand the contribution of oxidative metabolism and glycolytic metabolism to metabolic profiling. […]
as §1

HEPG2 cells [3] = experiment: Control microscopy with calcein acetoxymethyl (AM) ester live-cell indicator, HEPG2 cells; format: cell-based, human; conditions: 5 μM koningic acid treated cells, after experiment of FIG. 18B
Description: (§2) After completion of each experiment represented by FIG. 18A and FIG. 18B for the HEPG2 cells, and by FIG. 19A and FIG. 19B for the A673 cells, control microscopy studies using calcein acetoxymethyl (AM) ester, a known fluorescent indicator of live cells, were performed. […] These control microscopy studies confirmed that what was observed using the ChemFET-based cell analysis system to perform the studies represented by FIG. 18A through FIG. 19B for both HEPG2 and A673 cells were observed using live cells.

A673 cells [4] = experiment: Control microscopy with calcein acetoxymethyl (AM) ester live-cell indicator, A673 cells; format: cell-based; conditions: 5 μM koningic acid treated cells, after experiment of FIG. 19B
Description: as §2

HEPG2 cells [5] = conditions: FCCP 100 μM; ISFET chip device 2 with microwells; not all cells showed efflux
Description: A sensor array device of the present disclosure, such as sensor array device 500 of FIG. 2, has an open structure, thereby allowing the HEPG2 cells to be cultured on the sensor surface in ^˜1 mL of cell culture media. The device was sterilized with 70% Ethanol in water, rinsed and prepared with 100 μg/mL poly-D-lysine in phosphate buffered saline prior to adding cells to facilitate cell adhesion to a chip device surface as depicted in FIG. 5B.
For plating on the sensor array device, the HEPG2 cells were harvested from culture, resuspended at 2.5×10^5 cells per mL in complete cell culture medium (composed of Minimum Essential Medium, MEM, Thermo Fisher Scientific catalog number 11095080) plus 10% Fetal Calf Serum (FCS, Thermo Fisher Scientific Catalog number A3160401) and plated onto the sensor array device for overnight incubation in a cell culture incubator under standard conditions at 37° C. with 95% humidity and 5% carbon dioxide in room air atmosphere. […] Cells were then allowed to adhere to the prepared surface of the sensor array device and grow overnight or longer before microscopic analysis of morphology and qualitative assessment of viability. […]

CC(C)[C@H]1CC[C@@]2(CO2)[C@H]2C(=O)OCC(C(=O)O)=C[C@H]12 [koningic acid]
averaged temporal response, counts equivalent to protons (CEP) versus time (HEPG2 cells [1]; 5 μM koningic acid pretreatment during glucose restriction, two to three hours, then glucose, oligomycin, 2-deoxy-D-glucose, FIG. 18B): no change in the averaged signal | averaged temporal response (CEP) to glucose reintroduction with and without koningic acid (A673 cells [2]): comparable to the results using HEPG2 cells | acute toxicity, calcein staining profile versus control vehicle treated cultures (HEPG2 cells [3]): no acute toxicity | acute toxicity, calcein staining profile versus control vehicle treated cultures (A673 cells [4]): no acute toxicity

N#CC(C#N)=NNc1ccc(OC(F)(F)F)cc1 [FCCP, carbonyl cyanide-4-(trifluoromethoxy) phenylhydrazone]
cellular response observed in electroscopic image (HEPG2 cells [5]): efflux of cellular contents

CC[C@H]1/C=C/C=C/C[C@@H](C)[C@H](O)[C@@](C)(O)C(=O)[C@@H](C)[C@H](O)[C@@H](C)C(=O)[C@@H](C)[C@H](O)[C@@H](C)/C=C/C(=O)O[C@@H]2[C@H](C)[C@H](CC1)O[C@]1(CC[C@H](C)[C@H](C[C@@H](C)O)O1)[C@H]2C [oligomycin]
averaged temporal response, counts equivalent to protons (CEP) versus time (HEPG2 cells [1]; 1 μM oligomycin introduced at 295 seconds after glucose, control without koningic acid, FIG. 18A): potentiated

O=CC[C@@H](O)[C@H](O)[C@H](O)CO [2-deoxy-D-glucose]
averaged temporal response, counts equivalent to protons (CEP) versus time (HEPG2 cells [1]; 50 mM 2-deoxy-D-glucose introduced at 371 seconds after oligomycin, control without koningic acid, FIG. 18A): attenuated
